Like-named read-outs stand apart in the source and are kept apart here.
Assays:
[1] = test system: S. aureus JAR060131; format: cell-based, Staphylococcus aureus; details: for IC99.9: approx. 1 × 10^6 CFU/ml S. aureus JAR, within 2 hrs (Table 2)
Experimental: Polypeptides of the invention preferably have an in vitro IC99.9 of at most 150 μM after 2 hours at 37° C. against at least one microbial species in the presence of 50% plasma. Said IC99.9 is preferably determined in accordance with a method for determining the antimicrobial activity as described herein in the Examples. Said method described in the Examples for determining antimicrobial activity of microbes not associated with biofilm involves the mixing of 50 microL of a solution of a polypeptide in PBS with addition of human plasma at a final concentration of 50% and 20 microL of bacterial suspension with 5×10^6 CFU per mL of PBS in a well. After incubation of this mixture for 2 hours at 37° C. under shaking conditions, a sample is used for assessment of the bacterial counts. The lowest peptide concentration at which there is 99.9% of bacteria killed, is called the inhibitory concentration (IC) 99.9. Bacterial counts can be determined by manual CFU counting. For determining antibacterial activity for instance 1×10^6 CFU/ml bacteria are used, for determining antifungal activity for instance 1×10^5 cells/ml are used.
(§1) Peptides were incubated with 1×10^6 CFU/ml of a mid-logarithmic culture of S. aureus JAR060131, methicillin resistant S. aureus (MRSA) LUH14616, Staphylococcus epidermidis RP62a, and Pseudomonas aeruginosa PAO1 in PBS without or with addition of pooled human plasma (Sanquin, Amsterdam, the Netherlands) at a final concentration of 50%. Antimicrobial activity is expressed as the 99.9% lethal concentration (LC99.9), i.e., the lowest peptide concentration which killed ≥99.9% of bacteria after 2 hours of incubation at 37° C. under shaking conditions.

[2] = test system: methicillin resistant S. aureus (MRSA) LUH14616; format: cell-based, Staphylococcus aureus
Experimental: as §1

[3] = test system: Pseudomonas aeruginosa PAO1; format: cell-based
Experimental: as §1

[4] = test system: Staphylococcus epidermidis RP62a; format: cell-based
Experimental: as §1

[5] = test system: stationary phase S. aureus JAR060131; format: cell-based, Staphylococcus aureus
Experimental: Bacteria were stored at −80° C. until use. Inoculi of mid log phase bacteria were prepared by incubating isolated bacterial colonies from blood agar plates in Tryptic Soy Broth (TSB) medium (Becton Dickinson, Le Pont de Clax, France) for 2.5 hours and then diluted to the concentration needed. Stationary phase S. aureus JAR060131 was obtained from 18-20 hour cultures.
To assess the antimicrobial activity of the peptides towards stationary phase bacteria, peptides were incubated under the conditions described above with 1×10^6 CFU/ml of stationary phase S. aureus JAR060131, obtained from 18-20 hour cultures.

[6] = test system: A. niger PagsA-lux; test: Effect on fungal growth; format: cell-based, Aspergillus niger
Experimental: The effect of the peptides on fungal growth was assessed using Aspergillus niger. Peptides were incubated with 7.5×10^4 spores/ml of A. niger PagsA-lux in PBS without or with addition of pooled human plasma at a final concentration of 25%. As positive control, spores were treated with the antifungal caspofungin (Cancidas). Absorbance was measured over time and at 16 hours, fungal growth was visualized using light microscopy.

[7] = test system: S. aureus JAR060131 biofilm formation; format: cell-based, Staphylococcus aureus
Experimental: After solubilization with ethanol, the optical density at 590 nm is determined as a measure of biofilm mass.
Peptides were incubated with 1×10^8 CFU/ml of S. aureus JAR060131 in biofilm-adjusted BM2 in 96-wells polypropylene plates as described in Antimicrob Agents Chemother 2012; 56: 2696-2704. After 24 hours incubation at 37° C., planktonic bacteria were removed by four washes with PBS and biofilms were stained with crystal violet. After solubilization with ethanol, the optical density at 590 nm was determined as a measure of biofilm mass.
To assess the antibiofilm activity of the peptides in the presence of plasma, 96-wells polypropylene plates were coated with plasma by overnight incubation with 20% plasma at 4° C. Wells were washed once with sterile water and inoculated with S. aureus and peptides as described above.

[8] = test system: bacteria; format: cell-based
Source text: The currently known AMPs, including OP-145, still have a few drawbacks. For instance, various bacteria, such as P. aeruginosa, E. faecalis, Proteus mirabilis, Streptococcus pyogenes and S. aureus all secrete proteases that degrade several antimicrobial peptides, such as the cathelicidin LL-37. Thus, protease resistant antimicrobial peptides are advantageous from a therapeutical standpoint. Furthermore, due to potential lytic effect as well as other properties of AMPs against bacterial but also mammalian membranes, one of the challenges in designing new peptides relies on developing AMPs with high specificity against microorganisms such as bacterial or fungal cells as compared to cellular membranes of the infected patient, i.e., a high therapeutic index (minimal hemolytic concentration/minimal antimicrobial activity; MHC/MEC). Another important disadvantage of known AMPs, including OP-145, is that its activity is strongly affected by the presence of plasma components. For instance, for OP-145 the LC99.9 (the lowest peptide concentration which kills ≥99.9% of bacteria) in PBS of 1.6 μM, whereas the LC99.9 in PBS/plasma (1:1) is about 200 μM. This is in particular a disadvantage for systemically administered AMPs.

[9] = 50% plasma, mid-logarithmic culture, median (Table 3)

Ac-IGKEFKRIVERIKRFLRELVRPLR-NH2 [OP-145, JIGKEFKRIVERIKRFLRELVRPLRB, reference compound]
1.6 µM: LC99.9 ([1]; JAR060131, 2 h) | IC99.9 ([1]; PBS) | LC99.9 ([2]; methicillin resistant LUH14616) | LC99.9 ([5]; stationary phase JAR060131) | LC99.9 ([8]; PBS)
204.8 µM: IC99.9 ([1]; 50% plasma) | LC99.9 ([1]; 50% plasma, mid-logarithmic culture, median of at least two experiments (Table 3)) | LC99.9 [2, 9] | LC99.9 [4, 9] | concentration inhibiting A. niger growth ([6]; 25% plasma, light micrographs only, 16 hours (FIG. 2))
3.2 µM: LC99.9 ([3]; PAO1) | concentration inhibiting A. niger growth (by >99.9%) ([6]; PBS, optical density (FIG. 1)) | IC50 ([7]; JAR060131 biofilm formation, 24 h) | IC50 ([7]; plasma-coated wells (FIG. 3B), read-out: concentration inhibiting biofilm formation for 50%)
0.8 µM: LC99.9 ([4]; RP62a)
about 200 μM: LC99.9 ([8]; PBS/plasma (1:1))
>204.8 µM: LC99.9 [3, 9] | LC99.9 ([5]; 50% plasma, stationary suspension, mean of three experiments (Table 4))

— patent publication US10130677B2, “Antimicrobial peptide and uses thereof” (priority 2013, dated 2018)
